In one experiment the target is T1, GABAA-R (Homo sapiens, UniProt P14867+P47870).
T1 sequence (P14867 1-456): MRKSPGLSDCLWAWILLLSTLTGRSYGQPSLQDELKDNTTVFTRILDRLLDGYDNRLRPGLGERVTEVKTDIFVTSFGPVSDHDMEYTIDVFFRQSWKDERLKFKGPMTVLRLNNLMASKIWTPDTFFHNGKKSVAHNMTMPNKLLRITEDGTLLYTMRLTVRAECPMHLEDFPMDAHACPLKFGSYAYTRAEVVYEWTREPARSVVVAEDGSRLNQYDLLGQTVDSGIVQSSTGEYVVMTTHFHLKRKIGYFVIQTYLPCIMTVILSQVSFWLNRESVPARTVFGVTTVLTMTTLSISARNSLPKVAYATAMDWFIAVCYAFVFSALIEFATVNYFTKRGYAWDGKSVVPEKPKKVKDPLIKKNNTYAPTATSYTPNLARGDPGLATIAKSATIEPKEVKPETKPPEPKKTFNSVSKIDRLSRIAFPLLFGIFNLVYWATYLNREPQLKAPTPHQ
T1 sequence (P47870 1-512): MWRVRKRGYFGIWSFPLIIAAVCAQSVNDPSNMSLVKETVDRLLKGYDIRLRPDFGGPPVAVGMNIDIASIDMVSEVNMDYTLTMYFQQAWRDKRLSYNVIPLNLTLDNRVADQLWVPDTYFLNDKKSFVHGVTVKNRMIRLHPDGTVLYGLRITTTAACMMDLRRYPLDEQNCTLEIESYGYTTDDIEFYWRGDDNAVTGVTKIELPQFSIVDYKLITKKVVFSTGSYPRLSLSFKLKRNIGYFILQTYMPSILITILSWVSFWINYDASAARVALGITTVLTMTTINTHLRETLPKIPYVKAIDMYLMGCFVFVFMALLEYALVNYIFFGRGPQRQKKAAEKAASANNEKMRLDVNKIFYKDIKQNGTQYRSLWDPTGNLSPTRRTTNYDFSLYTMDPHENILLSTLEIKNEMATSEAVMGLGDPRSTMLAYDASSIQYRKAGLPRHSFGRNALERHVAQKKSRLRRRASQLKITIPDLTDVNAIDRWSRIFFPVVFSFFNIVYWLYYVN
Description: Electrophysiological evaluation at GABAA-R (Table 2). Type of experiment: cell-based. On the procedure:
Patch Clamp Electrophysiology of Recombinant α1β2γ2 and α4β3δ GABAA Receptors
Cellular electrophysiology is used to measure the pharmacological properties of our GABAA receptor modulators in heterologous cell systems. Each compound is tested for its ability to affect GABA mediated currents at a submaximal agonist dose (GABA EC20=2 μM). LTK cells are stably transfected with the α1β2γ2 subunits of the GABA receptor and CHO cells are transiently transfected with the α4β3δ subunits via the Lipofecatamine method. Cells were passaged at a confluence of about 50-80% and then seeded onto 35 mm sterile culture dishes containing 2 ml culture complete medium without antibiotics or antimycotics. Confluent clusters of cells are electrically coupled (Pritchett et al., Science, 1988, 242, 1306-1308.). Because responses in distant cells are not adequately voltage clamped and because of uncertainties about the extent of coupling (Verdoorn et al., Neuron 1990, 4, 919-928.), cells were cultivated at a density that enables the recording of single cells (without visible connections to other cells).
Whole cell currents were measured with HEKA EPC-10 amplifiers using PatchMaster software or by using the high throughput QPatch platform (Sophion). Bath solution for all experiments contained (in mM): NaCl 137 mM, KCl 4 mM, CaCl2 1.8 mM, MgCl2 1 mM, HEPES 10 mM, D-Glucose 10 mM, pH (NaOH) 7.4. In some cases 0.005% cremophor was also added. Intracellular (pipette) solution contained: KCl 130 mM, MgCl2 1 mM, Mg-ATP 5 mM, HEPES 10 mM, EGTA 5 mM, pH 7.2. During experiments, cells and solutions were maintained at room temperature (19° C.-30° C.). For manual patch clamp recordings, cell culture dishes were placed on the dish holder of the microscope and continuously perfused (1 ml/min) with bath solution. After formation of a Gigaohm seal between the patch electrodes and the cell (pipette resistance range: 2.5 MΩ-6.0 MΩ; seal resistance range: >1 GΩ) the cell membrane across the pipette tip was ruptured to assure electrical access to the cell interior (whole-cell patch-configuration). For experiments using the QPatch system, cells were transferred as suspension to the QPatch system in the bath solution and automated whole cell recordings were performed.
Cells were voltage clamped at a holding potential of −80 mV. For the analysis of test articles, GABA receptors were stimulated by 2 μM GABA after sequential pre-incubation of increasing concentrations of the test article. Pre-incubation duration was 30 s and the duration of the GABA stimulus was 2 s. Test articles were dissolved in DMSO to form stock solutions (10 mM). Test articles were diluted to 0.01, 0.1, 1, and 10 μM in bath solution. All concentrations of test articles were tested on each cell. The relative percentage potentiation was defined as the peak amplitude in response to GABA EC20 in the presence of the test article divided by the peak amplitude in response to GABA EC20 alone, multiplied by 100.

The next experiment has as its system male Sprague Dawley rats. Description: Loss of righting reflex in rats. In kind it is in vivo. As to conditions: Rat IV, 5 mpk. On the procedure: Loss of Righting Reflex in Rats
The plasma pharmacokinetics and a qualitative assessment of sedation were obtained in male
Sprague Dawley rats according to the following procedure. Rats were dosed by intravenous bolus dose (60 seconds) via the foot dorsal vein at doses ranging from 5 to 15 mg/kg in an appropriate vehicle. In order to assess sedation, rats were gently restrained by hand to a lateral position for dose administration. […] If the animal was unable to return to an upright position, the time was recorded as the onset of loss of righting reflex (LRR). […] Sluggish or incomplete righting twice consecutively within a 30 second interval qualifies as a loss of righting reflex. After onset of LRR, animals were assessed every 5 minutes in the same manner. Recovery of righting reflex is defined as the ability of a rat to right itself completely within 20 seconds of being placed in dorsal recumbency. The duration of LRR is defined as the time interval between LRR and the return of righting reflex.

The mark [1] stands for this setting: GABAA-R electrophysiology, read-out: EC50.

Where two headings read alike, the source gives them in different places.

Turning to `C[C@@]1(O)CC[C@H]2[C@H](CC[C@@H]3[C@@H]2CC[C@]2(C)[C@@H](C(=O)Cn4cccn4)CC[C@@H]32)C1` [SA-13], the maximal effect (Emax) on GABAA-R (GABAA-R electrophysiology) fell in the range of 0 to 500%. Moreover, the EC50 at GABAA-R (setting [1]) was 500 to 1000 nM.
For the compound `Cc1cnn(CC(=O)[C@H]2CC[C@H]3[C@@H]4CC[C@@H]5C[C@](C)(O)CC[C@@H]5[C@H]4CC[C@]23C)c1` [SA-6], the maximal response (Emax) on GABAA-R (GABAA-R electrophysiology) lay in the range of 0 to 500%. Moreover, on GABAA-R (setting [1]), the EC50 lay in the range of 100 to 500 nM. Further, the “Duration of Rat LRR” value in the experiment with male Sprague Dawley rats is listed as “A (<15 min)”.
Consider `C[C@@]1(O)CC[C@H]2[C@H](CC[C@@H]3[C@@H]2CC[C@]2(C)[C@@H](C(=O)Cn4cc(C#N)cn4)CC[C@@H]32)C1` [SA-4], for which the concentration for a half-maximal effect (EC50) at GABAA-R was in the range of 100 to 500 nM. Moreover, at GABAA-R (GABAA-R electrophysiology), the maximal effect (Emax) fell in the range of 0 to 500%. The “Duration of Rat LRR” value with male Sprague Dawley rats was “C (>60 min)”.
